Assay results: patent US20250368649A1, “TETRAHYDROPYRIDOPYRIMIDINE PAN-KRAS INHIBITORS” (Mirati Therapeutics, Inc., priority 2022, published 2025)

Experiments:
KRas G12V = KRas G12V (Homo sapiens, UniProt P01116, G12V); experiment: biochemical; settings: Binding to KRas (IC50 nM) G12V, TR-FRET displacement, KRas G12V
KRas G12D = KRas G12D (Homo sapiens, UniProt P01116, G12D); experiment: biochemical; settings: Binding to KRas (IC50 nM) G12D, TR-FRET displacement, KRas G12D
H460 cells = experiment: Inhibition of KRas-mediated phosphorylation of ERK (Cisbio HTRF pERK), H460 cells; assay type: cell-based; settings: Homo sapiens, NCI-H460, single point at 100 nM, 3 hrs compound incubation
KRas G12C = KRas G12C (Homo sapiens, UniProt P01116, G12C); assay type: binding; settings: for IC50: TR-FRET displacement, read-out: Binding to KRas (IC50 nM) G12C
KRas G12C, sequence (P01116 1-169 isoform P01116-2 G12C): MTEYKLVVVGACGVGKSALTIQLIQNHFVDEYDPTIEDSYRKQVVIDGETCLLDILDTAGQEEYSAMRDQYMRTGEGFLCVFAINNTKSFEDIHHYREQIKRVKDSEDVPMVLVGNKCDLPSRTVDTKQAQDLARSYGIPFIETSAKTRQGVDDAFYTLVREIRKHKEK

H727 cells = experiment: Inhibition of KRas-mediated phosphorylation of ERK (Cisbio HTRF pERK), H727 cells; assay type: cell-based; settings: Homo sapiens; for IC50: NCI-H727, 3 h, 3 hr compound incubation; for inhibition at 0.1 µM: NCI-H727, single point at 100 nM, 3 hrs compound incubation
A549 cells = experiment: Inhibition of KRas-mediated phosphorylation of ERK (Cisbio HTRF pERK), A549 cells; assay type: cell-based; settings: Homo sapiens; for inhibition at 0.1 µM: single point at 100 nM, 3 hrs compound incubation; for IC50: A549, 3 h, 3 hr compound incubation
HCT116 cells = experiment: Inhibition of KRas-mediated phosphorylation of ERK (Cisbio HTRF pERK), HCT116 cells; assay type: cell-based; settings: Homo sapiens, HCT-116, single point at 100 nM, 3 hrs compound incubation
KRas G12R = KRas G12R (Homo sapiens, UniProt P01116, G12R); experiment: biochemical; settings: Binding to KRas (IC50 nM) G12R, TR-FRET displacement, KRas G12R
KRas G12R, sequence (P01116 1-169 isoform P01116-2 G12R): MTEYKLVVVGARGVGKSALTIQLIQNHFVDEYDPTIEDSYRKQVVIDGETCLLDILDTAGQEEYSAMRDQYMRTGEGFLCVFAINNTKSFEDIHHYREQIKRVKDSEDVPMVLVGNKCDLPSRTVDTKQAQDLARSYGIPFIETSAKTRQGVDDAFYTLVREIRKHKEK

KRas WT = KRas WT (Homo sapiens, UniProt P01116); experiment: KRas binding assay (TR-FRET displacement), KRas WT; settings: for IC50: TR-FRET displacement
KRas WT, sequence (P01116 1-169 isoform P01116-2): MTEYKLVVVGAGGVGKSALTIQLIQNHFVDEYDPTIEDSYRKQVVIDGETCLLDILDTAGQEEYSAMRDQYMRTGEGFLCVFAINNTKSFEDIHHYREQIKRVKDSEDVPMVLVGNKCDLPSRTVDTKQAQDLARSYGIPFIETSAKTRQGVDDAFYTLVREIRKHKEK

KRas G12S = KRas G12S (Homo sapiens, UniProt P01116, G12S); assay type: binding; settings: for IC50: TR-FRET displacement, read-out: Binding to KRas (IC50 nM) G12S
KRas G12S, sequence (P01116 1-169 isoform P01116-2 G12S): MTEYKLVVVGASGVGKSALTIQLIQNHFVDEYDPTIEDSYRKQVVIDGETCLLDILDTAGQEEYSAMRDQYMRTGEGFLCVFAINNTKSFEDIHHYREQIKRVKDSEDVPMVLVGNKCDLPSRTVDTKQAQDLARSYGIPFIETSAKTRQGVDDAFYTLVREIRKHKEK

KRas G13D = KRas G13D (Homo sapiens, UniProt P01116, G13D); assay type: binding
KRas G13D, sequence (P01116 1-169 isoform P01116-2 G13D): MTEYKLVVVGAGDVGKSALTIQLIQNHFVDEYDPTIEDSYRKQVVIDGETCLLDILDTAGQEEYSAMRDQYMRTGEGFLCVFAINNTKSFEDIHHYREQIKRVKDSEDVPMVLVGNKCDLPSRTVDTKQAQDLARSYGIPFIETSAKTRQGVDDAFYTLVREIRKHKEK

H358 cells = experiment: Inhibition of KRas-mediated phosphorylation of ERK (Cisbio HTRF pERK), H358 cells; assay type: cell-based; settings: Homo sapiens; for inhibition at 0.1 µM: NCI-H358, single point at 100 nM, 3 hrs compound incubation; for IC50: NCI-H358, 3 h, 3 hr compound incubation
KRas G12A = KRas G12A (Homo sapiens, UniProt P01116, G12A); assay type: binding
KRas G12A, sequence (P01116 1-169 isoform P01116-2 G12A): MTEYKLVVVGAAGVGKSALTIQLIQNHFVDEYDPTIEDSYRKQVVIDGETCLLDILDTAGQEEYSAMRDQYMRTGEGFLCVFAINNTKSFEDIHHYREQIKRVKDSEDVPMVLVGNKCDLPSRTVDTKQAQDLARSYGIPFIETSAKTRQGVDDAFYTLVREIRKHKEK

ASPC1 cells = experiment: Inhibition of KRas-mediated phosphorylation of ERK (Cisbio HTRF pERK), ASPC1 cells; assay type: cell-based; settings: Homo sapiens, AsPC-1 cells; for IC50: ASPC1, 3 h, 3 hr compound incubation; for inhibition at 0.1 µM: ASPC1, single point at 100 nM, 3 hrs compound incubation
KRas Q61H = KRas Q61H (Homo sapiens, UniProt P01116, Q61H); experiment: KRas binding assay (TR-FRET displacement), KRas Q61H
KRas Q61H, sequence (P01116 1-169 isoform P01116-2 Q61H): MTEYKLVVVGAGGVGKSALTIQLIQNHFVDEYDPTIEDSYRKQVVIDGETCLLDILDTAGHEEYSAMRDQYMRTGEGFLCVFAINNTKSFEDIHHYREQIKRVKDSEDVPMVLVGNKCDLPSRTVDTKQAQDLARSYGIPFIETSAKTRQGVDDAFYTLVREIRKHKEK

MKN1 cells = experiment: Inhibition of KRas-mediated phosphorylation of ERK (Cisbio HTRF pERK), MKN1 cells; assay type: cell-based; settings: Homo sapiens, MKN-1, 3 hr compound incubation
Protocol: Inhibition of KRas Phosphorylation of ERK (HTRF) by Exemplary Compounds of Formula (I) Cisbio HTRF Advanced pERK Assay Catalog #64AERPEH • Cells: MKN1, PSN1 • Procedure: • Day 1: Seed 6,000 cells/well -25 µl/well in 384-well white solid bottom plate; RPM1_10% FBS.

KRas G12V, sequence (P01116 1-169 isoform P01116-2 G12V): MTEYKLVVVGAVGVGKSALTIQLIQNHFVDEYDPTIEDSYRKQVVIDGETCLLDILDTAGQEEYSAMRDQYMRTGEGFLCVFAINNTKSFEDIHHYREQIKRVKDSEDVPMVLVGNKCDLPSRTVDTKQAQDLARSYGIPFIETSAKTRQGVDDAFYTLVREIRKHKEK
KRas G12D, sequence (P01116 1-169 isoform P01116-2 G12D): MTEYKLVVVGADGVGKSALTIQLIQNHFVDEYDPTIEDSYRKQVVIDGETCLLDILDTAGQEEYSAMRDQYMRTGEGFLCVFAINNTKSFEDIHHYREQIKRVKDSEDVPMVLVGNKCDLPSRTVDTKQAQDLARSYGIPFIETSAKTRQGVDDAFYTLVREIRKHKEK

| Structure (SMILES) | IC50 (KRas G12V) | IC50 (KRas G12D) | inhibition at 0.1 µM (H460 cells) | IC50 (KRas G12C) | IC50 (H727 cells; Cisbio pERK HTRF) | inhibition at 0.1 µM (H727 cells) | inhibition at 0.1 µM (A549 cells) | inhibition at 0.1 µM (HCT116 cells) | IC50 (KRas G12R) | IC50 (KRas WT) | IC50 (KRas G12S) | inhibition at 0.1 µM (H358 cells) | IC50 (ASPC1 cells; Cisbio pERK HTRF) | inhibition at 0.1 µM (ASPC1 cells) | IC50 (H727 cells) | IC50 (A549 cells) | IC50 (MKN1 cells) | IC50 (H358 cells) | IC50 (ASPC1 cells) | further results |
| --- | --- | --- | --- | --- | --- | --- | --- | --- | --- | --- | --- | --- | --- | --- | --- | --- | --- | --- | --- | --- |
| Cc1cc2[nH]ncc2c(N2CCc3c(nc(OCC4(CN(C)C)CC4)nc3N3CCC[C@]4(C3)NC(=O)NC4=O)C2)c1C [Example 462, (R)-7-(7-(5,6-dimethyl-1H-indazol-4-yl)-2-((1-((dimethylamino)methyl)cyclopropyl)methoxy)-5,6,7,8-tetrahydropyrido[3,4-d]pyrimidin-4-yl)-1,3,7-triazaspiro[4.5]decane-2,4-dione] | 7 nM | 16 nM | 9% | 6 nM | > 10000 nM | -8% | 8% | 3% | 7 nM | 9 nM | 9 nM | 1% | > 10000 nM | -6% |  |  |  |  |  | IC50 (KRas G13D; TR-FRET displacement, read-out: Binding to KRas (IC50 nM) G13D): 9 nM; IC50 (KRas G12A; TR-FRET displacement, read-out: Binding to KRas (IC50 nM) G12A): 10 nM; IC50 (KRas Q61H; TR-FRET displacement): 10 nM |
| C=C1CN2CCCC2(COc2nc3c(c(N4CC5CC(O)CC4C5)n2)CCN(c2cc(O)cc4ccc(F)c(CC)c24)C3)C1 (stereo not drawn) [Example 661, 6-(7-(8-ethyl-7-fluoro-3-hydroxynaphthalen-1-yl)-2-((2-methylenetetrahydro-1H-pyrrolizin-7a(5H)-yl)methoxy)-5,6,7,8-tetrahydropyrido[3,4-d]pyrimidin-4-yl)-6-azabicyclo[3.2.1]octan-3-ol] | 33 nM | 143 nM |  | 32 nM |  |  |  |  |  | 25 nM | 21 nM |  |  |  | 4780 nM | 3800 nM | 1380 nM | 864 nM | > 10000 nM |  |
| C=C1CN2CCCC2(COc2nc3c(c(N4CCCC5(CC(O)C5)C4)n2)CCN(c2cc(O)cc4ccc(F)c(CC)c24)C3)C1 (stereo not drawn) [Example 660, 6-(7-(8-ethyl-7-fluoro-3-hydroxynaphthalen-1-yl)-2-((2-methylenetetrahydro-1H-pyrrolizin-7a(5H)-yl)methoxy)-5,6,7,8-tetrahydropyrido[3,4-d]pyrimidin-4-yl)-6-azaspiro[3.5]nonan-2-ol] | < 2 nM | 3 nM |  | < 2 nM |  |  |  |  |  | < 2 nM | < 2 nM |  |  |  | 204 nM | 131 nM | 28.2 nM | 25 nM | 261 nM |  |
| CCc1c(F)ccc2cc(O)cc(N3CCc4c(nc(OC[C@@]56CCCN5C[C@H](F)C6)nc4N4CCCn5nc(C(=O)N6CC7CCC6CN7)cc5C4)C3)c12 (stereo partly drawn) [Example 264, 2,5-diazabicyclo[2.2.2]octan-2-yl(5-(7-(8-ethyl-7-fluoro-3-hydroxynaphthalen-1-yl)-2-(((2R,7aS)-2-fluorohexahydro-1H-pyrrolizin-7a-yl)methoxy)-5,6,7,8-tetrahydropyrido[3,4-d]pyrimidin-4-yl)-5,6,7,8-tetrahydro-4H-pyrazolo[1,5-a][1,4]diazepin-2-yl)methanone] | < 2 nM | < 2 nM | 0% |  | 259 nM | 22% | 15% | -7% | < 2 nM |  |  | 43% | 51 nM | 34% |  |  |  |  |  | inhibition at 0.01 µM (KRas G12C; single point, 10 nM compound, read-out: Binding to KRas (% inhibition at 10 nM) G12C): 100%; inhibition at 0.01 µM (KRas WT; single point, 10 nM compound): 96%; inhibition at 0.01 µM (KRas G12S; single point, 10 nM compound, read-out: Binding to KRas (% inhibition at 10 nM) G12S): 99%; inhibition at 0.01 µM (KRas G13D; single point, 10 nM compound, read-out: Binding to KRas (% inhibition at 10 nM) G13D): 97%; inhibition at 0.01 µM (KRas G12A; single point, 10 nM compound, read-out: Binding to KRas (% inhibition at 10 nM) G12A): 95%; inhibition at 0.01 µM (KRas Q61H; single point, 10 nM compound): 98% |
